Our source for the IC50 and ED50 values is US4987131A, “4H-triazolo[4,3-a][1,4]benzodiazepines” (Roussel Uclaf, priority 1985, dated 1991).

For assay [1], the target named is T1, cyclo-oxygenase contained in a microsomal preparation of seminal vesicles of a bull (Bos taurus, UniProt O62664).
T1 construct: cyclo-oxygenase contained in a microsomal preparation of seminal vesicles of a bull; from tissue; host or cells: bull seminal vesicles, microsomal preparation
T1 sequence (O62664 25-600): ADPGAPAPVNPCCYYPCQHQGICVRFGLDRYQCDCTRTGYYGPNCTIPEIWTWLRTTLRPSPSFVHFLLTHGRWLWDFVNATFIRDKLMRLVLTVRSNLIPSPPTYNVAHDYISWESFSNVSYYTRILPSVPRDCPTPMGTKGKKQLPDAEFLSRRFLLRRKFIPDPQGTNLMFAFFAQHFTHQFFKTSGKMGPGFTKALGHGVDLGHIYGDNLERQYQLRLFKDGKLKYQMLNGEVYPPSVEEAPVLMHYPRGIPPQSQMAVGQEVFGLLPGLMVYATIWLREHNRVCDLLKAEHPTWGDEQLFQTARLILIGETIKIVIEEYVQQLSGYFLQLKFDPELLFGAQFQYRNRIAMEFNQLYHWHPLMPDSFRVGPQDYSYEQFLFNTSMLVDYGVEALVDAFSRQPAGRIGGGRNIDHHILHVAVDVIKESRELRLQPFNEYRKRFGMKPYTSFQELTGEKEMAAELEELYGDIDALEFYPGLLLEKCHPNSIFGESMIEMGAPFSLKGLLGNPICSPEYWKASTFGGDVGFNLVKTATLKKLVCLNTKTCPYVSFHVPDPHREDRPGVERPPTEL
The assay can be described thus: Action on biosynthesis of prostaglandins in vitro. The assay is classed as biochemical. Conditions: arachidonic acid 15×10^-6 M, incubated 30 minutes at 37° C., radioimmuno test; read-out: CI50, inhibiting activity calculated on the sum of PGE2 and PGF2 alpha. The procedure: A. Action on biosynthesis of prostaglandins in vitro.
Arachidonic acid is converted into prostaglandins (PGs) of series 2 by a cyclo-oxygenase contained in a microsomal preparation of seminal vesicles of a bull carried out according to the Tagekuchi et al method [Mechanism of prostaglandin biosynthesis. I characterization and essay of bovine prostaglandin synthetase. Biochemistry, 1971, 10, 2372]. The precursor, at […] of 15×10^-6 M, was incubated for 30 minutes at 37° C. in the presence of a fixed concentration in proteins of the preparation of seminal vesicles and of the product of Example 1. After blocking the reaction by immersion in boiling water for one minute, then centrifuging, the prostaglandins were evaluated by radioimmuno test inspired by that of Dray et al [Radioimmunoessay of prostaglandins F, E1 and E2 in human plasma. European J. Clin. Invest., 1975 5, 311]. This enabled the PGE2 and PGF2 alpha to be evaluated specifically and the inhibiting activity of the product (CI50) is calculated on the sum of these two prostaglandins. The CI50 found was 2×10^ -6 M.

Assay [2] has as its system stretchings induced by acetic acid in mice. The assay can be described thus: Analgesic activity: stretchings induced by acetic acid. The assay is classed as in vivo. Conditions: Mus musculus, po, 0.25 h, orally half an hour before i.p. acetic acid 100 mg/kg, observation 15 minutes, read-out: DA50, dose giving a decrease of 50% in the number of stretchings. As to the method:
B. Study of analgesic activity
The test used was stretchings induced by acetic acid described by R. Koster et al [Fed. Proc. 1959, 1B 412] according to which the intraperitoneal injection of acetic acid induces in mice repeated stretchings and torsional movements which can persist for more than 6 hours. Analgesics prevent or decrease this syndrome which can considered as the externalization of a diffuse abdominal pain. The acetic acid was administered at a dose of 100 mg/kg or 1 ml of a 1% aqueous solution per 100 g of body weight and the compound of Example 1 was orally administered half an hour before the injection of acetic acid, the mice having been without food for 7 hours. The stretchings were observed and counted for each mouse for a period of observation of 15 minutes and the results were expressed as active dose 50 which is the dose which enabled a decrease of 50% to be obtained in the number of stretchings in comparison with the control animals. The DA50 found was 4 mg/kg.

In assay [3] the test system is arthritis induced by carrageenin in rats. Description: Anti-inflammatory activity: arthritis induced by carrageenin. It is filed as in vivo. Particulars: Rattus norvegicus, po; male rats, orally, simultaneously with carrageenin in the tibio-tarsal articulation, paw volume; read-out: DA50, dose giving a decrease in the oedema of 50%. As to the method:
C. Anti-inflammatory activity was determined by the test for arthritis induced by carrageenin in rats and 0.5 ml of a sterile suspension at 1% of carrageenin was administered in the tibio-tarsal articulation of a back paw in male rats weighing from 130 to 150 g. Simultaneously, the product of Example 1 was orally administered in a suspension of carboxymethylcellulose at 0.25% and of Tween at 0.02%. The volume of the paw was measured before the administration, then 2 hours, 4 hours, 6 hours, 8 hours and 24 hours afterwards. The intensity of the inflammation was at its highest 4 to 6 hours after the injection of carrageenin and the difference in volume of the paws of the treated animals and the control animals was evidence of the anti-inflammatory action of the medicament. The DA50 was determined, which was the dose which enabled a decrease in the oedema of 50% to be obtained.

Take `COc1ccc(-c2nnc3n2-c2ccccc2C(C)=NC3C)cc1` (stereo not drawn) [Example 1, 4,6-dimethyl-1-(4-methoxyphenyl)-4H-1,2,4-triazolo[4,3-a][1,4]benzodiazepine]: in assay [1], the IC50 is 2000 nM. For the same compound, the ED50 in assay [2] came to 4 mg/kg; in assay [3] it was 50 mg/kg.
